{
  "source": "patent US6761694B2",
  "about": "“Methods for measuring retinal damage” (Allergan, Inc., priority 2001, dated 2004)",
  "tested_on": "retina exposed to laser (secondary retinal damage)",
  "test": "Retinal thickness analysis (Retinal Thickness Analyzer) after laser photocoagulation in a patient with AMD",
  "format": "in vivo, human",
  "text": "In order to calculate the slope of retinal thickness, the thickness of the retina must be measured. In practicing the methods of the invention, it is preferred that the retinal thickness be measured in situ as compared to histologically. Retinal thickness may be measured using publicly available devices generally configured to image optical cross-sections of the retina, and to digitally process the cross-sections to result in a measurement of retinal thickness. One such device used to practice the methods of the invention is the Retinal Thickness Analyzer ([…] Technology, Ltd., […] Zion, Israel) as disclosed in U.S. Pat. No. 6,267,477, entitled, “Three dimensional imaging apparatus and a method for use thereof”. Another device that may be used to measure retinal thickness in the methods of the invention is the Optical Coherence Tomography (OCT) Scanner (Humphrey Instruments, Inc., San Leandro, Calif.) and as described in U.S. Pat. No. 5,491,524, entitled, “Optical coherence tomography corneal mapping apparatus”. Another device that may be used to measure retinal thickness in practicing the methods of the invention is the Heidelberg Retina Tomograph (HRT; Heidelberg Engineering GmbH, Heidelberg, Germany) and as described in U.S. Pat. No. 5,170,276, entitled, “Apparatus for imaging an object”. The images obtained by such devices can then be examined, and the slope of retinal thickness measured. The slope of retinal thickness may be calculated as a ratio by measuring the change in retinal thickness as a function of distance between two or more points of the retina near the lesion site. The human retina is approximately 200-250 μm thick. Using the devices described above, it is possible to optically cross-section the retina in 20 μm increments. If the retinal thickness changes by 200 μm over a distance of 20 μm, the corresponding slope of retinal thickness would be 10. Similarly, if the retinal thickness changes 200 μm over a distance of 2 mm, the corresponding slope would be 0.1. In the foregoing examples, a slope of 10 indicates the retinal damage is less than the retinal damage where the slope of damage is 0.1. Persons skilled in the art will appreciate that the slope of retinal thickness may be calculated over any number of distances, and that the smallest distance is only limited by the resolution of the devices used to practice the methods of the invention. A person presents with blurred vision in their right eye with particular distorted images near the middle of their visual field. An ophthalmologist conducts an eye exam. […] The ophthalmologist detects the presence of an abnormal amount of soft drusen. A diagnosis of age-related macular degeneration (AMD) is made. […]",
  "data": [
    {"smiles": "CC12CC3CC(C)(C1)CC(N)(C3)C2", "note": "[memantine]", "values": [
      {"measurement": "secondary damage by retinal thickness analysis", "setting": "memantine 0.25% w/v topically prior to laser treatment, after the surgery", "value": "little secondary damage"},
      {"measurement": "visual impairment on additional laser treatments", "setting": "memantine 0.25% w/v topically, continued laser treatments", "value": "without significant visual impairment"},
      {"measurement": "change in retinal thickness", "setting": "over a distance of about 40 μm, memantine 0.25% w/v topically prior to laser treatment, twenty-one days after laser surgery", "value": 200, "unit": "μm"},
      {"measurement": "slope of damage (slope of retinal thickness)", "setting": "person with AMD, memantine 0.25% w/v topically prior to laser photocoagulation, scan twenty-one days after laser surgery", "value": "approximately 8"}
    ]}
  ]
}
